Laboratory results as given in ChEMBL document CHEMBL1201862, “PubChem BioAssay data set” (2004).
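Interpolation was linear, between the two tested concentrations surrounding the appropriate level; five concentrations were tested over 48 hours in 96-well plates. GI50: concentration for 50% inhibition of growth.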 Activity calls are given as the source filed them. Cut-off read from the data, not from the text of the source: active = GI50 up to about 1.1 µM and inactive = higher.

Columns and labels:
Assay in all cases: inhibition of tumour cell growth, NCI panel, 48 h
A498 = tested on: A498
HL-60 = tested on: HL-60
HT-29 = tested on: HT-29
IGROV-1 = tested on: IGROV-1
K562 = tested on: K562
KM12 = tested on: KM12
MDA-N = tested on: MDA-N
Malme-3M = tested on: Malme-3M
OVCAR-4 = tested on: OVCAR-4
OVCAR-5 = tested on: OVCAR-5
RPMI-8226 = tested on: RPMI-8226
SK-MEL-28 = tested on: SK-MEL-28
SK-MEL-5 = tested on: SK-MEL-5
SNB-19 = tested on: SNB-19
SNB-75 = tested on: SNB-75
T47D = tested on: T47D
TK-10 = tested on: TK-10
U-251 = tested on: U-251
UACC-62 = tested on: UACC-62
SF-539 = tested on: SF-539

Row | SMILES | GI50 (A498) | GI50 (HL-60) | GI50 (HT-29) | GI50 (IGROV-1) | GI50 (K562) | GI50 (KM12) | GI50 (MDA-N) | GI50 (Malme-3M) | GI50 (OVCAR-4) | GI50 (OVCAR-5) | GI50 (RPMI-8226) | GI50 (SK-MEL-28) | GI50 (SK-MEL-5) | GI50 (SNB-19) | GI50 (SNB-75) | GI50 (T47D) | GI50 (TK-10) | GI50 (U-251) | GI50 (UACC-62) | GI50 (SF-539)
1 | C#CC(O)/C=C/C(O)CCCC(O)CC#CC(O)C#CC(O)CCCC(O)/C=C/CCCCCC(=O)CCCCCCCCCCCCCC(O)C(O)C#CC(=O)O (stereo unspecified) | > 50 µM (inactive) | 26.8 µM (inactive) | 19.3 µM (inactive) | 13.7 µM (inactive) | > 50 µM (inactive) | > 50 µM (inactive) | > 50 µM (inactive) | > 50 µM (inactive) | 9.02 µM (inactive) | > 50 µM (inactive) | 26.5 µM (inactive) | 12 µM (inactive) | > 50 µM (inactive) | > 50 µM (inactive) | 12.3 µM (inactive) | 10.9 µM (inactive) | > 50 µM (inactive) | > 50 µM (inactive) | > 50 µM (inactive) | 
2 | NC(=O)C(c1ccccc1)N1OC2C(=O)N(Cc3ccccc3)C(=O)C2C1c1cccc(Oc2ccc(Cl)cc2)c1 (stereo unspecified) | 52.1 µM (inactive) | 23.4 µM (inactive) | 18.2 µM (inactive) | 36.5 µM (inactive) | 26 µM (inactive) | 28.3 µM (inactive) | 20.7 µM (inactive) | 42.9 µM (inactive) | 27.8 µM (inactive) | 32.1 µM (inactive) |  | 79.3 µM (inactive) | 15.9 µM (inactive) | 37.1 µM (inactive) | 31.7 µM (inactive) | 32.1 µM (inactive) | 30.9 µM (inactive) | 28.2 µM (inactive) | 15.8 µM (inactive) | 18.7 µM (inactive)
3 | C=C(OC1C(C)=C2C(C1OC(=O)CCCCCCC)C(C)(OC(C)=O)CC(OC(=O)CCC)C1(O)C2OC(=O)C1(C)O)/C(C)=C/C (stereo unspecified) | 0.0125 µM (active) |  | 0.0125 µM (active) | 0.0125 µM (active) | 0.0125 µM (active) | 0.0125 µM (active) | < 0.0001 µM (active) | 0.0125 µM (active) | 0.0125 µM (active) | 0.034 µM (active) | 0.0125 µM (active) | 0.0125 µM (active) | 0.0125 µM (active) | 0.0422 µM (active) | 0.0125 µM (active) | 0.000135 µM (active) |  | 0.0125 µM (active) | 0.0125 µM (active) | 0.0125 µM (active)
4 | COc1ccc(CN2C(=O)CCC/C=C\[C@H]2CI)cc1 | 12.5 µM (inactive) |  | 9.71 µM (inactive) | 15.6 µM (inactive) | 6.97 µM (inactive) | 11 µM (inactive) | 13.1 µM (inactive) | 11.1 µM (inactive) | 10.9 µM (inactive) | 12.1 µM (inactive) | 6.97 µM (inactive) | 12.6 µM (inactive) | 12.6 µM (inactive) | 13.2 µM (inactive) | 2.41 µM (inactive) | 0.286 µM (active) | 12.5 µM (inactive) | 13.6 µM (inactive) | 10.8 µM (inactive) | 13.6 µM (inactive)
5 | CCOc1ccc(/C=C2/C(=O)N/C(=N\C(C)=O)N2C)cc1 | > 100 µM (inactive) | 17.9 µM (inactive) | > 100 µM (inactive) | > 100 µM (inactive) |  | > 100 µM (inactive) | > 100 µM (inactive) |  | > 100 µM (inactive) | > 100 µM (inactive) |  | > 100 µM (inactive) | > 100 µM (inactive) | > 100 µM (inactive) | > 100 µM (inactive) | > 100 µM (inactive) | > 100 µM (inactive) | > 100 µM (inactive) | > 100 µM (inactive) | > 100 µM (inactive)
6 | C(=N/Nc1ccc(-c2nc3ccccc3[nH]2)cc1)/c1c(-c2ccccc2)[nH]c2ccccc12 | 0.516 µM (active) | 0.211 µM (active) | 0.222 µM (active) | 0.728 µM (active) | 0.176 µM (active) | 0.4 µM (active) | 0.0303 µM (active) |  | 2.78 µM (inactive) |  | 0.268 µM (active) | 0.638 µM (active) | 0.311 µM (active) |  | 0.703 µM (active) | 28.8 µM (inactive) | 0.766 µM (active) | 0.322 µM (active) |  | 0.444 µM (active)
7 | COc1ccc(C2c3cc4c(cc3OC(NNS(=O)(=O)c3ccc(C)cc3)C2C)OCO4)cc1 (stereo unspecified) | 78.5 µM (inactive) | 21.6 µM (inactive) | 93.8 µM (inactive) | 57.1 µM (inactive) | 10.6 µM (inactive) | 65.9 µM (inactive) | 58.3 µM (inactive) | > 100 µM (inactive) |  | > 100 µM (inactive) | 12.5 µM (inactive) | > 100 µM (inactive) | 69.5 µM (inactive) | > 100 µM (inactive) | 37.4 µM (inactive) | 54.2 µM (inactive) | > 100 µM (inactive) | 83.4 µM (inactive) | 71.6 µM (inactive) | > 100 µM (inactive)
8 | O=C1c2cscc2C(=O)C1(O)O | > 100 µM (inactive) | 26.1 µM (inactive) | 70 µM (inactive) | > 100 µM (inactive) | 33 µM (inactive) | > 100 µM (inactive) | 40.4 µM (inactive) | 23.4 µM (inactive) | 25.6 µM (inactive) | > 100 µM (inactive) | 45 µM (inactive) | > 100 µM (inactive) | > 100 µM (inactive) | > 100 µM (inactive) |  | 18.6 µM (inactive) | > 100 µM (inactive) | > 100 µM (inactive) | > 100 µM (inactive) | > 100 µM (inactive)
9 | CC(=O)N1CCOC12N=NC(C)(C)O2 (stereo unspecified) | > 100 µM (inactive) |  | > 100 µM (inactive) | > 100 µM (inactive) | > 100 µM (inactive) | > 100 µM (inactive) | > 100 µM (inactive) | > 100 µM (inactive) | > 100 µM (inactive) | > 100 µM (inactive) | > 100 µM (inactive) | > 100 µM (inactive) | > 100 µM (inactive) | > 100 µM (inactive) | > 100 µM (inactive) | > 100 µM (inactive) | > 100 µM (inactive) | > 100 µM (inactive) | > 100 µM (inactive) | > 100 µM (inactive)
10 | COC(=O)c1c(O)ccc2c1c1c(n2Cc2ccc(Cl)cc2Cl)C(=O)c2ccccc2C1=O | 18.1 µM (inactive) | 13.8 µM (inactive) | 17.6 µM (inactive) | 11.2 µM (inactive) | 5.9 µM (inactive) | 3.41 µM (inactive) | 12.1 µM (inactive) | 16 µM (inactive) | 1.95 µM (inactive) | 19.5 µM (inactive) | 2.88 µM (inactive) | 16.2 µM (inactive) | 13.7 µM (inactive) | 15.7 µM (inactive) | 17.9 µM (inactive) | 1.97 µM (inactive) | 14.9 µM (inactive) | 10.8 µM (inactive) |  | 14.4 µM (inactive)
11 | COc1ccc2c(c1)CC[C@@H]1C2CC[C@]2(C)C(=O)N(CCN(C)C)C(=O)CC12 (stereo partly specified) | > 100 µM (inactive) | > 100 µM (inactive) | > 100 µM (inactive) | > 100 µM (inactive) | > 100 µM (inactive) | > 100 µM (inactive) | > 100 µM (inactive) | > 100 µM (inactive) | > 100 µM (inactive) | > 100 µM (inactive) |  | > 100 µM (inactive) | 83.9 µM (inactive) | > 100 µM (inactive) | > 100 µM (inactive) | > 100 µM (inactive) | > 100 µM (inactive) | > 100 µM (inactive) | > 100 µM (inactive) | > 100 µM (inactive)
12 | COC(=O)C1(C)C=CC(=O)C2(C)C1C(O)C1OC3CC(c4ccoc4)C(C)=C3C1(C)C2CC(=O)O (stereo unspecified) | > 100 µM (inactive) | > 100 µM (inactive) |  | > 100 µM (inactive) |  | > 100 µM (inactive) | > 100 µM (inactive) | > 100 µM (inactive) | > 100 µM (inactive) | > 100 µM (inactive) | > 100 µM (inactive) | > 100 µM (inactive) | > 100 µM (inactive) | > 100 µM (inactive) | > 100 µM (inactive) | > 100 µM (inactive) | > 100 µM (inactive) | > 100 µM (inactive) | > 100 µM (inactive) | > 100 µM (inactive)
13 | Cc1cccc2c(=O)c3cccc([C@@H](C)C(=O)O)c3oc12 | > 100 µM (inactive) | > 100 µM (inactive) | > 100 µM (inactive) | > 100 µM (inactive) | > 100 µM (inactive) | > 100 µM (inactive) | > 100 µM (inactive) |  | > 100 µM (inactive) |  | > 100 µM (inactive) | > 100 µM (inactive) | > 100 µM (inactive) | > 100 µM (inactive) |  | > 100 µM (inactive) | > 100 µM (inactive) | > 100 µM (inactive) | > 10 µM (inactive) | > 100 µM (inactive)
14 | COc1ccc(/N=C2\C(=O)C3=C(OC(C)(C)CC3)c3ccccc32)cc1 | 7.91 µM (inactive) | 0.592 µM (active) | 0.741 µM (active) | 1.36 µM (inactive) | 0.612 µM (active) | 0.968 µM (active) | 0.492 µM (active) | 0.791 µM (active) | 0.773 µM (active) | 2.82 µM (inactive) |  | 1.14 µM (inactive) | 0.838 µM (active) | 0.916 µM (active) | 1.11 µM (active) | 0.839 µM (active) | 2.33 µM (inactive) | 0.841 µM (active) | 0.94 µM (active) | 0.005 µM (active)
15 | COc1cc2c(c(OC)c1OC)-c1ccc(=O)c(O)cc1[C@@H](NC(C)=O)CC2 [COLCHICEINE] | 18.4 µM (inactive) | 4.99 µM (inactive) | 16.1 µM (inactive) | 26.3 µM (inactive) | 15.6 µM (inactive) | 15 µM (inactive) | 16.9 µM (inactive) |  | 12.6 µM (inactive) | 33.5 µM (inactive) | 11.1 µM (inactive) | 42.5 µM (inactive) | 7.66 µM (inactive) | 25.4 µM (inactive) | 40.6 µM (inactive) | 5.51 µM (inactive) | 37.9 µM (inactive) | 15.7 µM (inactive) | 13.2 µM (inactive) | 19.1 µM (inactive)
